Source: patent publication EP4458804A1, “METHOD FOR PRODUCING AN OBJECT, PHENALEN-1-ONE COMPOUND AND USE THEREOF” (TriOptoTec GmbH, priority 2023, dated 2024)

What was measured:
[1] = Incorporation of photocatalysts into TPU films versus process time, absorption spectroscopy against blank film (Beispiele 7a-9b); format: physicochemical; settings: Rezeptur 1
Method: Im nächsten Schritt wurde die Verwendbarkeit der verschiedene Photokatalysatorklassen, ausgewählt aus Phenalen-1-on-Derivaten, Curcumin-Derivaten und Porphycen-Derivaten, mit unterschiedlichen Eigenschaften - von neutral unpolar bis ionisch polar - auf Ihre Verwendbarkeit und Wirkung im Verfahren untersucht.
Zur Beurteilung der optimalen Prozesszeit bei Einsatz der Photokatalysatoren, wurden TPU Folienstücke nach Beschreibung in Beispiel 4 zu je 1, 2, 5 und 10 min in den Imprägnierlösungen behandelt, gegebenenfalls auch 30 und 60 min bei undeutlichen Ergebnissen.
Als Basisformulierung wurde Rezeptur 1 nach Beispiel 2 verwendet.
Nach der angegebenen Prozesszeit wurden die Folie entnommen, mit Wasser gewaschen und für 1h bei 40°C getrocknet/abgelüftet.
Die Folien wurden durch Absorptionsspektroskopie gegen ein Blank-Folienstück direkt vermessen, beim Maximum der Absorption des Photokatalysators. Dabei ergaben sich in Abhängigkeit der Prozesszeit folgende Werte, die in den Tabellen 40 bis

[2] = tested on: S.aureus ATCC 6538; assay: Antibacterial activity of impregnated films, modified ISO 22196 with illumination (Beispiele 11-16, 25); format: cell-based
Description: Die Bestimmung der antimikrobiellen Aktivität erfolgte nach einer modifizierten Version der ISO 22196:2011-08 ("Messung von antibakterieller Aktivität auf Kunststoff- und anderen porenfreien Oberflächen", Ausgabedatum: 2011-08).
Bei der Testdurchführung wurde ein dünner Flüssigkeitsfilm, in dem die Bakterien enthalten sind (1,25 x 10^4 /cm^2), direkt auf die Probenkörper (3 x 3 cm) aufgebracht. Direkt nach Beimpfung wurden von der Nullprobe die Bakterien von den Probenkörperoberflächen mittels Ultraschall und Vortexen abgelöst und die Keimzahl (KBE (engl. CFU), Kolonie-bildende Einheit) bestimmt (t0-Wert).
Nach 4h wurden überlebende Bakterien von den Probenkörperoberflächen mittels Ultraschall und Vortexen abgelöst und die Keimzahl bestimmt (t4-Wert).
Im Unterschied zu der in der ISO 22196:2011-08 beschreibenen Methode wurde das Inokulum nicht mit einer Folie abgedeckt und die Inkubationszeit wurde von 24 auf 4 Stunden reduziert. Weiterhin wurden die Probenkörper der Proben 3 und 4 mit Licht der Intensität 20mW/cm2 für 10min belichtet, um eine biozide Wirkung nach Bestrahlung mit elektromagnetischer Strahlung zu bestimmen.
Verwendet wurden TPU Folienstücke, die nach dem in Beispiel 4 beschriebenen Verfahren mit Rezeptur 1 behandelt wurden. Rezeptur 1 wurde hergestellt nach Beispiel 2. […] Der Test wurde in Anlehnung an ISO 22196 nach oben beschriebener Methode durchgeführt.
TPU-Folienstücke wurden ebenfalls nach dem in Beispiel 4 beschriebenen Verfahren mit verschiedenen Rezepturen behandelt, die gemäß Beispiel 2 hergestellt wurden. Die Farbstoffkonzentration in der Imprägnierlösung betrug jeweils 1 mM F-24b. Der Test wurde in Anlehnung an ISO 22196 nach oben beschriebener Methode durchgeführt.
Die Farbstoffkonzentration in der Imprägnierlösung betrug jeweils 1 mM.
Die Photokatalysator-Konzentration von F-24b wurde variiert.
Es wurde ein Bakterientest in Anlehnung an ISO 22196 nach oben beschriebener Methode durchgeführt.

[3] = Comparative examples 23-25: impregnation of unsuitable plastics or with a fluorescent dye, visual evaluation; format: physicochemical; settings: TPU Folien
Method: Die Farbstoffkonzentration in der Imprägnierlösung betrug jeweils 1 mM bei Phenalen-1-on- und Curcuminderivaten, 0,1 mM bei Prophycenderivaten.
Es wurden 0,2 mm starke Polycarbonatfolien eingesetzt und mit Imprägnierlösungen enthaltend die Photokatalysatoren F-24b, F-64a oder F-73 behandelt.
Es wurden TPU Folien eingesetzt und mit einer Imprägnierlösung enthaltend den Farbstoff 2-Chloro-6-(3-hydroxypropylamino)-1-phenalenon (CAS 113722-81-9) behandelt.

[4] = tested on: S.aureus ATCC 6538; assay: Antibacterial activity of impregnated films, modified ISO 22196 with illumination (Beispiele 11-16, 25); format: cell-based; settings: Beispiel 14; TPU film; Rezeptur 1 (nach Beispiel 1); 1 mM photocatalyst in impregnation solution; light 20mW/cm2 10min
[5] = Leaching test A: screening immersion 24 h, UV-VIS of supernatant (Beispiel 10 A); format: physicochemical; design: Abs. nach Auswaschen: unit not given here; settings: medium Wasser; for Berechneter Verlust in %: Rezeptur 1 nach Beispiel 1; for Abs. nach Auswaschen: Rezeptur 1 nach Beispiel 1, supernatant
Method: Um das Auswaschen der verschiedenen Farbstoffe in den Kunststofffolien zu beurteilen, wurde ein Immersionstest in deionisiertem Wasser mit einem pH-Wert von (6 ± 1) (oder gegebenenfalls anderen Lösungsmitteln) und einer Wassertemperatur von (22 ± 3) °C für 24 Stunden durchgeführt.
Dazu wurde ein Folienstück definierter Größe (3 cm x 3 cm) imprägniert (nach Rezeptur 1, Beispiel 1) und anschließend für 24 Stunden in eine definierte Menge deionisiertem Wasser (12,0 mL) gegeben und durch eine Schüttelplatte in Bewegung gehalten. Nach der angegeben Immersionszeit wurde die Folie entnommen und der Überschuss im UV-VIS Spektrometer vermessen, um die ausgewaschene Menge an Farbstoff zu bestimmen. Die Menge wird durch die definierte Größe der Folie und definierte Flüssigkeitsmenge auf einen Quadratzentimeter zurückgerechnet.
Dieser Immersionstest diente dazu, das Auswaschverhalten verschiedener Farbstoffe aus verschiedenen Kunststofffolien zu beurteilen. Weiter sollte er dabei helfen, verschiedene Farbstoffklassen oder verschiedene Farbstoffderivate einer Farbstoffklasse bezüglich dieser Charakteristik miteinander zu vergleichen.
Die zugeschnittenen Folien werden in einem geeigneten Behälter vollständig mit dem Prüfmedium (typischerweise deionisiertes Wasser) bedeckt. Anschließend wird der Behälter zugedeckt und auf die Schüttelplatte aufgebracht. Bei geringer Geschwindigkeit der Platte wird für 24 Stunden gewartet. Nach der Immersion wurden 3 mL des Überstandes durch Absorptionsspektroskopie vermessen.
Die Auswertung erfolgte über das Verhältnis der max. Absorptionswerte einer reinen Farbstofflösung definierter Konzentration und des vermessenen Überstandes. Die Ergebnisse sind in Tabelle 50 dargestellt. Tabelle 50: Auswaschverhalten verschiedener Photokatalysatoren nach Immersionstest A

[6] = Beispiel 7a neutral Phenalen-1-one, TPU film, process time 1 min, absorption at photocatalyst maximum vs blank film
[7] = Beispiel 7a neutral Phenalen-1-one, TPU film, process time 2 min
[8] = Beispiel 7a neutral Phenalen-1-one, TPU film, process time 5 min
[9] = Beispiel 7a neutral Phenalen-1-one, TPU film, process time 10 min
[10] = Beispiel 9a neutral Porphycenderivate mit Hydroxyfunktion, TPU film, process time 10 min
[11] = TPU Folie, Beispiel 8a, Tabelle 44
[12] = TPU Folie, Beispiel 7d, Tabelle 43

CC(Oc1ccc(OCC2=Cc3cccc4cccc(c34)C2=O)cc1)C(=O)O (stereo not drawn) [F-20a]
Abs. 1 min [1, 6]: 0,020 | Abs. 2 min [1, 7]: 0,014 | Abs. 5 min [1, 8]: 0,020 | Abs. 10 min [1, 9]: 0,035

O=C1C(COc2ccc(O)cc2)=Cc2cccc3cccc1c23 [F-12]
Abs. 1 min [1, 6]: 0,108 | Abs. 2 min [1, 7]: 0,349 | Abs. 5 min [1, 8]: 0,411 | Abs. 10 min [1, 9]: >1

COCCC1=Cc2nc1ccc1[nH]c(cc1CCOC)c1nc(c(OC)cc3[nH]c2cc3CCOC)C(CCOC)=C1 [F-68]
Abs. 10 min [1, 10]: 1,01 | Abs. 30 min ([1]; Beispiel 9a neutral Porphycenderivate mit Hydroxyfunktion, TPU film, process time 30 min): >1 | Abs. 60 min ([1]; Beispiel 9a neutral Porphycenderivate mit Hydroxyfunktion, TPU film, process time 60 min): >1

NCCOc1ccc(/C=C/C(=O)C(C(=O)/C=C/c2ccc(OCCN)cc2)c2ccccc2)cc1 [F-64c]
Abs. 5 min [1, 11]: 0,61 | Abs. 10 min [1, 11]: >1

NCCCOc1ccc2cccc3c2c1C(=O)C=C3 [F-10]
Abs. 1 min [1, 6]: 0,044 | Abs. 2 min [1, 7]: 0,011 | Abs. 5 min [1, 8]: 0,062 | Abs. 10 min [1, 9]: 0,087

O=C1C(Cl)=Cc2ccc(NCCCO)c3cccc1c23 [2-Chloro-6-(3-hydroxypropylamino)-1-phenalenon, reference compound]
photodynamische Inaktivierung von S.aureus gegenüber den Kontrollen ([2]; TPU Folien dyed with the fluorescent dye (Beispiel 25)): keine photodynamische Inaktivierung | Färbung der Folie ([3]; 30 min Einwirkzeit): homogen pink gefärbte Folien | Entfernbarkeit der Färbung ([3]; Abreiben mit feuchtem Tuch, Waschen mit Wasser): weder durch Abreiben mit einem feuchten Tuch noch durch Waschen mit Wasser entfernt

COCCC1=Cc2nc1ccc1[nH]c(cc1CCOC)c1nc(c(OCCC(NC(=O)OC(C)(C)C)C(=O)O)cc3[nH]c2cc3CCOC)C(CCOC)=C1 (stereo not drawn) [F-78b]
Abs. 10 min [1, 10]: 0,670

COCCC1=Cc2nc1ccc1[nH]c(cc1CCOC)c1nc(c(OCCCN)cc3[nH]c2cc3CCOC)C(CCOC)=C1 [F-71]
Abs. 1 min ([1]; Beispiel 9a neutral Porphycenderivate mit Hydroxyfunktion, TPU film, process time 1 min): 0 | Abs. 2 min ([1]; Beispiel 9a neutral Porphycenderivate mit Hydroxyfunktion, TPU film, process time 2 min): 0 | Abs. 5 min ([1]; Beispiel 9a neutral Porphycenderivate mit Hydroxyfunktion, TPU film, process time 5 min): 0,032 | Abs. 10 min [1, 10]: 0,04 | Abs. 10 min ([1]; Beispiel 9b cationic Porphycenderivate, TPU film, process time 10 min): 0,023 | Abs. 30 min ([1]; Beispiel 9b cationic Porphycenderivate, TPU film, process time 30 min): 0,062 | Abs. 60 min ([1]; Beispiel 9b cationic Porphycenderivate, TPU film, process time 60 min): 0,114

O=C1C=Cc2cc(S(=O)(=O)O)cc3cccc1c23 [F-01b]
Abs. 10 min [1, 12]: 0,008 | Abs. 30 min [1, 12]: 0,011 | Abs. 60 min [1, 12]: 0,065

COc1cc(/C=C/C(=O)CC(=O)/C=C/c2cc(Br)c(OCCN)c(OC)c2)cc(Br)c1OCCN [F-65]
Abs. 1 min [1, 11]: 0,08 | Abs. 10 min [1, 11]: 0,87 | Log10 Reduktion Hauptprobe [4]: 1,3 ± 0,1 log10

O=C1C(S(=O)(=O)O)=Cc2cccc3cccc1c23 [F-01a]
Log10 Reduktion Hauptprobe [4]: 1,4 ± 0,4 log10

CCOC1=CC(=O)c2cccc3cccc1c23 [F-02]
Abs. 1 min [1, 12]: 0,125 | Abs. 2 min [1, 12]: 0,229 | Abs. 5 min [1, 12]: 0,475 | Abs. 10 min [1, 12]: 0,590 | Berechneter Verlust in % ([5]; plastic Surlyn): 2,7% | Abs. nach Auswaschen ([5]; plastic Surlyn): 0,009

NCCCOC1=CC(=O)c2cccc3cccc1c23 [F-08]
Abs. 1 min [1, 6]: 0,003 | Abs. 2 min [1, 7]: 0,015 | Abs. 5 min [1, 8]: 0,016 | Abs. 10 min [1, 9]: 0,023 | Log10 Reduktion Hauptprobe ([2]; Beispiel 14, TPU film, Rezeptur 1 (nach Beispiel 1), 1 mM photocatalyst in impregnation solution, light 20mW/cm2 10min): 4,0 ± 0,3 log10

COC(=O)C(C)Oc1ccc(OCC2=Cc3cccc4cccc(c34)C2=O)cc1 (stereo not drawn) [F-19a]
Abs. 1 min [1, 6]: >1 | Abs. 2 min [1, 7]: >1 | Abs. 5 min [1, 8]: >1 | Abs. 10 min [1, 9]: >1

9-Acetoxy-2,7,12,17-tetra-(beta-methoxyethyl)porphycen [F-66]
Abs. 1 min ([1]; Beispiel 9a, TPU film, process time 1 min, used as 0,1 mM Lösung): 0,008 | Abs. 2 min ([1]; Beispiel 9a, TPU film, process time 2 min, used as 0,1 mM Lösung): 0,020 | Abs. 5 min ([1]; Beispiel 9a, TPU film, process time 5 min, used as 0,1 mM Lösung): 0,044 | Abs. 10 min ([1]; Beispiel 9a, TPU film, process time 10 min, used as 0,1 mM Lösung): 0,058 | Berechneter Verlust in % ([5]; plastic TPU): 2,0% | Abs. nach Auswaschen ([5]; plastic TPU): 0,021

NCCOc1ccc2c3c(cccc13)C=CC2=O [F-09]
Abs. 1 min [1, 6]: 0,227 | Abs. 2 min [1, 7]: 0,158 | Abs. 5 min [1, 8]: 0,123 | Abs. 10 min [1, 9]: 0,263
